Measured values as given in patent US4690823A, “Ibuprofen-containing soft gelatin capsules and process for preparing same” (Dolorgiet Beteiligungs-GmbH, priority 1984, dated 1987).

Experiment: Precipitation of ibuprofen from solution on contact with aqueous medium / artificial gastric juice or on cooling
Format: physicochemical
Details: addition of small amounts of water, or aqueous medium such as artificial gastric juice
Text: It is an object of the present invention to provide a medicament that can be readily taken that contains an active amount of ibuprofen in a carrier, that is simple to prepare and that will quickly display a high activity. […] When such a solution, upon oral administration, gets into the stomach, then the aqueous content of the stomach causes the ibuprofen to be precipitated so that it will be barred from a quick resorption. […] In addition, these solutions may be incorporated in soft gelatin capsules in a per se known manner. The latter dosage form has an advantage over all other previously known dosage forms for ibuprofen that upon intake the active ingredient is quickly resorbed. To this effect it is not necessary that, subsequent to synthesis, the active ingredient is subjected to expensive galenic processing measures. […] In order to dissolve ibuprofen in the solvents according to the invention, the solvents are heated at 45° C. to 65° C., since only at these temperatures the dissolution will take place sufficiently fast. Upon cooling to room temperature, no reprecipitation occurs. […] It is readily possible that 40 parts by weight are additionally suspended in said solutions at room temperature and thereafter incorporated in soft gelatin capsules. […]

CC(C)Cc1ccc(C(C)C(=O)O)cc1 (stereo not shown) [Ibuprofen, 2-(4-isobutylphenyl)propionic acid]
precipitation on contact with aqueous medium (in words): will immediately precipitate upon the addition of small amounts of water
